In assay [1] the target is Met (phospho-Met, HGF-stimulated PC-3 prostate cancer cells) (Homo sapiens (Human), UniProt P08581). Put plainly: Met autophosphorylation ELISA in PC-3 cells (Example F). The assay is classed as cell-based. Particulars: cellular activity; Met autophosphorylation ELISA in PC-3 cells; read-out: c-Met IC50. The essentials: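 Serum-starved (3 h) PC-3 cells were treated 1 h with compounds (8-point curve, 0.3% DMSO), then stimulated with 100 ng/mL human HGF for 10 min. Lysate phospho-Met (panTyr) was measured by sandwich ELISA, normalised to DMSO and reference-inhibitor controls. IC50 came from 4-parameter logistic fit.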
Chain of Met (phospho-Met, HGF-stimulated PC-3 prostate cancer cells) (P08581 25-1390): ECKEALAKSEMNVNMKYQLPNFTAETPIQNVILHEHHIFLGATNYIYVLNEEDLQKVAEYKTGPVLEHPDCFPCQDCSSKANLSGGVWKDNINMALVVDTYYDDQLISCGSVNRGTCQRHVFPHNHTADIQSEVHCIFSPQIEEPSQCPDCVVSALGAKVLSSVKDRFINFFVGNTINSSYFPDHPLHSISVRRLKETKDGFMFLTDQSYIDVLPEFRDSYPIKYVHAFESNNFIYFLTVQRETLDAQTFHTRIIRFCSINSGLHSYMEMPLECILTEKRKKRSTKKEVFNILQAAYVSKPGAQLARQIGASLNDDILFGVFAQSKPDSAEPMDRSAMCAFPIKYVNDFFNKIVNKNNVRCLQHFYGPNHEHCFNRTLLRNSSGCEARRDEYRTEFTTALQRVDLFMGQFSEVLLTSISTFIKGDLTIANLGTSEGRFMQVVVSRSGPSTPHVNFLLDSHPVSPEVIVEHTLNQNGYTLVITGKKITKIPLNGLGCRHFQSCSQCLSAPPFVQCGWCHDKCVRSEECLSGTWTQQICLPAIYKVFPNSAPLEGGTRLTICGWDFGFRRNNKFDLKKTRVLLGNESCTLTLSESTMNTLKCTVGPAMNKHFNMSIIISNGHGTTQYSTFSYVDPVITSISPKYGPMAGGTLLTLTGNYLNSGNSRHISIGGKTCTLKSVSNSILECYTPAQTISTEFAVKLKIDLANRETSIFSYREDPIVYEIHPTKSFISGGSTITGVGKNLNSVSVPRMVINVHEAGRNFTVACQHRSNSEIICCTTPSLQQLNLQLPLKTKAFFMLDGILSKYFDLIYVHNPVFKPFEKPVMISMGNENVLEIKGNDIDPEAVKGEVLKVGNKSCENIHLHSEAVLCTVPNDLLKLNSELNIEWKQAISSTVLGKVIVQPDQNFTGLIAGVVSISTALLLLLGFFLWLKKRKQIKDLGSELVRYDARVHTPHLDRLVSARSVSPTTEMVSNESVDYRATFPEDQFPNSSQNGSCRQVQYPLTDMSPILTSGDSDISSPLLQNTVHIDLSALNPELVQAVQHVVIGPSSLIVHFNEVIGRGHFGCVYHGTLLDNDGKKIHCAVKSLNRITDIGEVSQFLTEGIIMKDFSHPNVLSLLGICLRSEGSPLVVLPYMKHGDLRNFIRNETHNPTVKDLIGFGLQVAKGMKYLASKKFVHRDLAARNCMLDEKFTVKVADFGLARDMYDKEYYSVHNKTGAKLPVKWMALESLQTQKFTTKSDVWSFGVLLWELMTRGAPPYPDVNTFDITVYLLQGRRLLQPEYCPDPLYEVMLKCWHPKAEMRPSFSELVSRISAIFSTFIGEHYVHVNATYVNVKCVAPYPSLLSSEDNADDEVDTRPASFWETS
Background: ELISA stands for enzyme-linked immunosorbent assay.

Assay [2] concerns the target Human MER (residues 528-999) (Homo sapiens (Human), UniProt Q12866). In words: Human Mer kinase assay, HTRF KinEase (Example C-2). The assay is classed as biochemical. Particulars: protocol of Example C-2 (other compounds). The essentials:
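HTRF KinEase TK assay with MER 528-999 (1 ng/well) in enzymatic buffer plus 5 mM MgCl2 and 1 mM DTT, biotinylated peptide substrate and ATP at Km (40 μM), 3% DMSO final, 60 min at room temperature. Stopped with EDTA detection mix (SA-XL665, TK antibody-Eu3+), read at 665/620 nm after 60 min; IC50 from 10-point 4-parameter fit, normalized to DMSO and 1 μM reference.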
Background: In TR-FRET formats the signal depends on donor and acceptor labels being close together.

The record followed here is patent US12371428B2 (Exelixis, Inc., priority 2019, dated 2025).

Some results are limits rather than exact numbers.

Chain of Human MER (residues 528-999) (Q12866 528-999): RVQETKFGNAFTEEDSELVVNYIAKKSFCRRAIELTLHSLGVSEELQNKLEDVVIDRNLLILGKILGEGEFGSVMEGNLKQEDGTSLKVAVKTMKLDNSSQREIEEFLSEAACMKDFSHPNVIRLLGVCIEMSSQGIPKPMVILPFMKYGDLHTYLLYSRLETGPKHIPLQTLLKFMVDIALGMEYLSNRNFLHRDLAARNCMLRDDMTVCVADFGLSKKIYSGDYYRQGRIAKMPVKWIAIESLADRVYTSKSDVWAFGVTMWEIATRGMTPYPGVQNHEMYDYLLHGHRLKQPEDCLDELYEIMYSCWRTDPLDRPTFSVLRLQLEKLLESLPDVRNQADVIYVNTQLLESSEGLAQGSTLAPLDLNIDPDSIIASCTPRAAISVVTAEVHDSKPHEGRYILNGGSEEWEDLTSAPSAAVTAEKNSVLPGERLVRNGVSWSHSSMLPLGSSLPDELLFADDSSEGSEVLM

For orientation: IC50 means the concentration that inhibits the measured activity by half. In the case of `COc1cc2nccc(Oc3ccc(NC(=O)c4c(C)nc(C)c(-c5ccc(F)cc5C)c4O)cc3F)c2nc1OC` [Compound 177, N-[4-[(6,7-Dimethoxy-1,5-naphthyridin-4-yl)oxy]-3-fluorophenyl]-5-(4-fluoro-2-methylphenyl)-4-hydroxy-2,6-dimethylpyridine-3-carboxamide], the IC50 in assay [1] and in assay [2] was less than 100 nM throughout.
Regarding `COc1cnc2c(Oc3ccc(NC(=O)c4c(C)nc(C)c(-c5ccc(F)cc5C)c4O)cc3F)ccnc2c1` [Compound 178, N-[3-Fluoro-4-[(7-methoxy-1,5-naphthyridin-4-yl)oxy]phenyl]-5-(4-fluoro-2-methylphenyl)-4-hydroxy-2,6-dimethylpyridine-3-carboxamide], the IC50 in assay [1] and in assay [2] was less than 100 nM each time.
As to `CCc1nc(C)c(-c2ccc(F)cc2)c(O)c1C(=O)Nc1ccc(Oc2ccnc3cc(OC)c(OC)nc23)c(F)c1` [Compound 179, N-[4-[(6,7-Dimethoxy-1,5-naphthyridin-4-yl)oxy]-3-fluorophenyl]-2-ethyl-5-(4-fluorophenyl)-4-hydroxy-6-methylpyridine-3-carboxamide], the IC50 in assay [1] and in assay [2] was less than 100 nM in each case.
Take `CCc1nc(C)c(-c2ccc(F)cc2)c(O)c1C(=O)Nc1ccc(Oc2ccnc3cc(OC)cnc23)c(F)c1` [Compound 180, 2-Ethyl-N-[3-fluoro-4-[(7-methoxy-1,5-naphthyridin-4-yl)oxy]phenyl]-5-(4-fluorophenyl)-4-hydroxy-6-methylpyridine-3-carboxamide]: the half-maximal inhibitory concentration (IC50) in assay [1] and in assay [2] was less than 100 nM throughout.
On to `COc1cnc2c(Oc3ccc(NC(=O)c4cn(C)c(C)c(-c5ccc(F)cc5C)c4=O)cc3F)ccnc2c1` [Compound 181, N-[3-Fluoro-4-[(7-methoxy-1,5-naphthyridin-4-yl)oxy]phenyl]-5-(4-fluoro-2-methylphenyl)-1,6-dimethyl-4-oxopyridine-3-carboxamide], for which the IC50 in assay [1] and in assay [2] was less than 100 nM throughout.
Turning to `CCc1nc(C)c(-c2ccc(F)cc2)c(O)c1C(=O)Nc1ccc(Oc2ccnc3ccc(OC)nc23)c(F)c1` [Compound 182, 2-Ethyl-N-[3-fluoro-4-[(6-methoxy-1,5-naphthyridin-4-yl)oxy]phenyl]-5-(4-fluorophenyl)-4-hydroxy-6-methylpyridine-3-carboxamide], the IC50 in assay [1] and in assay [2] was less than 100 nM in each case.
On to `COc1ccc2nccc(Oc3ccc(NC(=O)c4cn(C)c(C)c(-c5ccc(F)cc5C)c4=O)cc3F)c2n1` [Compound 183, N-[3-Fluoro-4-[(6-methoxy-1,5-naphthyridin-4-yl)oxy]phenyl]-5-(4-fluoro-2-methylphenyl)-1,6-dimethyl-4-oxopyridine-3-carboxamide], for which the IC50 is 100 to 300 nM in assay [1] and less than 100 nM in assay [2].
The matching figures for `COCc1nc(C)c(-c2ccc(F)cc2)c(O)c1C(=O)Nc1ccc(Oc2ccnc3cc(OC)c(OC)nc23)c(F)c1` [Compound 184, N-[4-[(6,7-Dimethoxy-1,5-naphthyridin-4-yl)oxy]-3-fluorophenyl]-5-(4-fluorophenyl)-4-hydroxy-2-(methoxymethyl)-6-methylpyridine-3-carboxamide]: less than 100 nM and less than 100 nM.
The matching figures for `COCc1nc(C)c(-c2ccc(F)cc2)c(O)c1C(=O)Nc1ccc(Oc2ccnc3cc(OC)cnc23)cc1` [Compound 185, 5-(4-Fluorophenyl)-4-hydroxy-2-(methoxymethyl)-N-[4-[(7-methoxy-1,5-naphthyridin-4-yl)oxy]phenyl]-6-methylpyridine-3-carboxamide]: less than 100 nM and less than 100 nM.
The corresponding values for `COCc1nc(C)c(-c2ccc(F)cc2)c(O)c1C(=O)Nc1ccc(Oc2ccnc3cc(OC)cnc23)c(F)c1` [Compound 186, N-[3-Fluoro-4-[(7-methoxy-1,5-naphthyridin-4-yl)oxy]phenyl]-5-(4-fluorophenyl)-4-hydroxy-2-(methoxymethyl)-6-methylpyridine-3-carboxamide] are less than 100 nM and less than 100 nM.
Consider `CCc1nc(C)c(-c2ccc(F)cc2)c(O)c1C(=O)Nc1ccc(Oc2ccnc3cc(OC)cnc23)cc1` [Compound 188, 2-Ethyl-5-(4-fluorophenyl)-4-hydroxy-N-[4-[(7-methoxy-1,5-naphthyridin-4-yl)oxy]phenyl]-6-methylpyridine-3-carboxamide], for which the IC50 in assay [1] and in assay [2] was less than 100 nM in each case.
For the compound `COCc1nc(C)c(-c2ccc(F)cc2)c(O)c1C(=O)Nc1ccc(Oc2ccnc3ccc(OC)nc23)c(F)c1` [Compound 189, N-[3-Fluoro-4-[(6-methoxy-1,5-naphthyridin-4-yl)oxy]phenyl]-5-(4-fluorophenyl)-4-hydroxy-2-(methoxymethyl)-6-methylpyridine-3-carboxamide], the half-maximal inhibitory concentration (IC50) in assay [1] and in assay [2] was less than 100 nM in each case.
On to `COCc1nc(C)c(-c2ccc(F)cc2)c(O)c1C(=O)Nc1ccc(Oc2ccnc3cc(OC)c(OC)nc23)cc1` [Compound 190, N-[4-[(6,7-Dimethoxy-1,5-naphthyridin-4-yl)oxy]phenyl]-5-(4-fluorophenyl)-4-hydroxy-2-(methoxymethyl)-6-methylpyridine-3-carboxamide], for which the IC50 in assay [1] and in assay [2] was less than 100 nM each time.
Turning to `COCc1nc(C)c(-c2ccc(F)cc2C)c(O)c1C(=O)Nc1ccc(Oc2ccnc3cc(OC)c(OC)nc23)c(F)c1` [Compound 191, N-[4-[(6,7-Dimethoxy-1,5-naphthyridin-4-yl)oxy]-3-fluorophenyl]-5-(4-fluoro-2-methylphenyl)-4-hydroxy-2-(methoxymethyl)-6-methylpyridine-3-carboxamide], the IC50 in assay [1] and in assay [2] was less than 100 nM throughout.
Take `COCc1nc(C)c(-c2ccc(F)cc2C)c(O)c1C(=O)Nc1ccc(Oc2ccnc3cc(OC)c(OC)nc23)cc1` [Compound 192, N-[4-[(6,7-Dimethoxy-1,5-naphthyridin-4-yl)oxy]phenyl]-5-(4-fluoro-2-methylphenyl)-4-hydroxy-2-(methoxymethyl)-6-methylpyridine-3-carboxamide]: the IC50 in assay [1] and in assay [2] was less than 100 nM throughout.
For `COCc1nc(C)c(-c2ccc(F)cc2C)c(O)c1C(=O)Nc1ccc(Oc2ccnc3cc(OC)cnc23)c(F)c1` [Compound 193, N-[3-Fluoro-4-[(7-methoxy-1,5-naphthyridin-4-yl)oxy]phenyl]-5-(4-fluoro-2-methylphenyl)-4-hydroxy-2-(methoxymethyl)-6-methylpyridine-3-carboxamide], the IC50 in assay [1] and in assay [2] was less than 100 nM in each case.
On to `COCc1nc(C)c(-c2ccc(F)cc2C)c(O)c1C(=O)Nc1ccc(Oc2ccnc3cc(OC)cnc23)cc1` [Compound 194, 5-(4-Fluoro-2-methylphenyl)-4-hydroxy-2-(methoxymethyl)-N-[4-[(7-methoxy-1,5-naphthyridin-4-yl)oxy]phenyl]-6-methylpyridine-3-carboxamide], for which the IC50 in assay [1] and in assay [2] was less than 100 nM throughout.
Take `COCc1nc(C)c(-c2ccc(F)cc2C)c(O)c1C(=O)Nc1ccc(Oc2ccnc3ccc(OC)nc23)c(F)c1` [Compound 195, N-[3-Fluoro-4-[(6-methoxy-1,5-naphthyridin-4-yl)oxy]phenyl]-5-(4-fluoro-2-methylphenyl)-4-hydroxy-2-(methoxymethyl)-6-methylpyridine-3-carboxamide]: the IC50 in assay [1] and in assay [2] was less than 100 nM in each case.
Regarding `COc1cc2nccc(Oc3ccc(NC(=O)c4cn(C)c(C)c(-c5ccc(F)cc5C)c4=O)cc3)c2nc1OC` [Compound 196, N-[4-[(6,7-Dimethoxy-1,5-naphthyridin-4-yl)oxy]phenyl]-5-(4-fluoro-2-methylphenyl)-1,6-dimethyl-4-oxopyridine-3-carboxamide], the IC50 in assay [1] and in assay [2] was less than 100 nM each time.
As for `CCc1nc(C)c(-c2ccc(F)cc2)c(O)c1C(=O)Nc1ccc(Oc2ccnc3cc(OC)c(OC)nc23)cc1` [Compound 197, N-[4-[(6,7-Dimethoxy-1,5-naphthyridin-4-yl)oxy]phenyl]-2-ethyl-5-(4-fluorophenyl)-4-hydroxy-6-methylpyridine-3-carboxamide], the half-maximal inhibitory concentration (IC50) in assay [1] and in assay [2] was less than 100 nM throughout.
For `COCCOc1nc2c(Oc3ccc(NC(=O)c4cn(C)c(C)c(-c5ccc(F)cc5)c4=O)cc3F)ccnc2cc1OC` [Compound 198, N-[3-Fluoro-4-[[7-methoxy-6-(2-methoxyethoxy)-1,5-naphthyridin-4-yl]oxy]phenyl]-5-(4-fluorophenyl)-1,6-dimethyl-4-oxopyridine-3-carboxamide], the IC50 in assay [1] and in assay [2] was less than 100 nM each time.
As for `COCCOc1nc2c(Oc3ccc(NC(=O)c4c(COC)nc(C)c(-c5ccc(F)cc5)c4O)cc3F)ccnc2cc1OC` [Compound 199, N-[3-Fluoro-4-[[7-methoxy-6-(2-methoxyethoxy)-1,5-naphthyridin-4-yl]oxy]phenyl]-5-(4-fluorophenyl)-4-hydroxy-2-(methoxymethyl)-6-methylpyridine-3-carboxamide], the IC50 in assay [1] and in assay [2] was less than 100 nM throughout.
Regarding `COCCOc1nc2c(Oc3ccc(NC(=O)c4cn(C)c(C)c(-c5ccc(F)cc5C)c4=O)cc3F)ccnc2cc1OC` [Compound 200, N-[3-Fluoro-4-[[7-methoxy-6-(2-methoxyethoxy)-1,5-naphthyridin-4-yl]oxy]phenyl]-5-(4-fluoro-2-methylphenyl)-1,6-dimethyl-4-oxopyridine-3-carboxamide], the IC50 in assay [1] and in assay [2] was less than 100 nM in each case.
